From patent US20090076130A1, “COMPOUNDS FOR THE INHIBITION OF HISTONE DEACETYLASE” (NATUREWISE BIOTECH & MEDICALS CORPORATION, priority 2007, published 2009)

How the values were obtained:
rat C6 glioma cells [1] = test: Growth of rat C6 glioma cells (observation and cell counting); assay type: cell-based; conditions: 2.5, 5 and 10 μg/mL, 48 hours, cell density and cell counting vs control
Experimental: The cancer cell line, rat C6 glioma cells, was cultured in Dulbecco's modified Eagle's medium (DMEM; Gibco) supplemented with penicillin G, streptomycin sulphate, 0.5 mM of L-glutamine and 10% fetal bovine serum (FBS; Gibco) at 37° C., 5% CO2 and 95% relative humidity. For all experiments, the cells were seeded at a density of 3×10^5 per well in 6-well plates. After 24 hours, the cells were treated with different concentrations of the compound NBM-HD-1 (i.e., the compound of formula III depicted herein). After 48 hours, the cells were observed and counted. According to the results shown in FIG. 1, NBM-HD-1 can arrest the growth of rat C6 glioma cells. After the C6 glioma cells were incubated with 2.5 μg/mL (see FIG. 1(A)-b), 5 μg/mL (see FIG. 1(A)-c) and 10 μg/mL (see FIG. 1(A)-d) of NBM-HD-1 for 48 hours, the density of the cells reduced dramatically in comparison with that of control (see FIG. 1(A)-a).

rat C6 glioma cells [2] = test: Cell cycle / DNA content of C6 glioma cells by FACScan cytometry; assay type: cell-based; conditions: 0, 2.5, 5, 10 μg/mL, 72 hours, PI staining
Experimental: 1×10^6 of rat C6 glioma cells were treated with various concentrations of NBM-HD-1 (0 μg/mL, 2.5 μg/mL, 5 μg/mL, and 10 μg/mL) for 72 hours. The treated cells were trysinized and collected. The cells were resuspended in 200 μL PBS and then fixed by adding 800 μL of cold 100% ethanol. The resulting cells were fixed overnight at −20°. The cell pellets were collected by centrifugation, resuspended in 1 mL of hypotonic buffer (0.5% Triton X-100 in PBS and 1 μg/mL RNase A), and incubated at 37° for 30 minutes. Then, 1 mL of PI solution (50 μg/mL) was added to the resulting cell pellets. The mixture was allowed to stand at 4° for 30 min. The DNA amounts of the cells were analyzed by FACScan Cytometry (Becton Dickinson) (see FIG. 2).

GFAP = GFAP expression in C6 glioma cells (immuno-fluorescent staining, RT-PCR); assay type: cell-based, rat
Experimental: After the C6 glioma cells were incubated with 10 μg/mL NBM-HD-1 for 24 hours, they were fixed and analyzed by the traditional immuno-fluorescent staining method. Staining of glia was carried out by using glial-specific GFAP antibody (SIGMA) as the primary antibody and a fluorescence labeled rabbit immuno-globulin (SIGMA) as the secondary antibody to bind with the primary antibody. The cells which are GFAP-positive were excited by a specific light source to emit fluorescence. Also, the nuclei were stained with DAPI. […] In contrast with the control group, more GFAP proteins were detected in the photos of the cells being treated with 10 μg/mL of NBM-HD-1.
The GFAP mRNA expression was examined by RT-PCR.

acetylated histone H4 = test: Western blotting of hyperacetylated histone H4 in C6 glioma cells; assay type: cell-based, rat
Experimental: Accumulation of hyperacetylated histone H4 was analyzed in the cell lysates by using Western Blotting and the antibody directed against acetylated histone H4 (Upstate). The C6 glioma cells were seeded at a density of 1×10^6 per 10 cm culture dish. After 24 hours, the cells were treated with 10 μg/mL of NBM-HD-1 or 4 mM sodium butyrate for several hours. The whole-cell lysates were prepared by using denaturing SDS sample buffer and then separated on 15% SDS-polyacrylamide gels. […] The amount of acetylated histones was hardly detectable in untreated C6 glioma cells. The amount of acetylated histone H4 of the cells treated with 4 mM sodium butyrate for 2 hours increased. Sodium butyrate was then removed from the culture medium. After 6 hours, the amount of acetylated histone H4 decreased. The accumulation of acetylated histone H4 increased in the cells treated with NBM-HD-1 for 2 hours. […] The highest histone acetylation appeared at 6 hours after the compound had been removed. […] Because NBM-HD-1 is more hydrophobic than sodium butyrate, NBM-HD-1 can be retained in the cells longer than sodium butyrate and continuously induce the acetylation of histone H4.

HDAC = HDAC Activity Assay Kit on nuclear extracts of treated C6 glioma cells; assay type: cell-based, rat; conditions: nuclear protein of C6 cells treated 24 hours, fluorometric substrate
Experimental: The C6 glioma cells were treated with different doses of NBM-HD-1 and sodium butyrate (SB). After 24 hours, the cells were harvested to extract the nuclear proteins by NucBuster™ Protein Extraction Kit (Novagen) as described by the manufacturer's instructions. These extracts were then used in HDAC Activity Assay Kit (Calbiochem) to analyze their HDAC (histone deacetylase) inhibition activities. The HDAC fluorometric substrate, which comprises an acetylated lysine side chain, was incubated with extracted nuclear protein first. Deacetylation of the substrate sensitized the substrate, so that, in the second step, treatment with the Lysine Developer produced a fluorophore. The fluorophore can easily be analyzed by using a fluorescence plate reader. […] Inhibition of HDAC has been implicated in the induction of differentiation in cancer cells. In this experiment, a well-known compound for HDAC inhibition, sodium butyrate, was used as a positive control.

## COc1cc2c(c(OC)c1CCC(C)(C)O)C(=O)C[C@@H](c1ccc(OC)c(OC)c1C/C=C(\C)CCCC(C)(C)O)O2 [NBM-HD-1]
Rat C6 glioma cells [1]
  growth of C6 glioma cells: can inhibit the growth of C6 glioma cells in a dose-dependent manner
Rat C6 glioma cells [2]
  cell cycle of C6 glioma cells: cell cycle arrest on the G0/G1 phase in a dose-dependent manner
GFAP; 10 μg/mL, 24 hours
  GFAP expression (immuno-fluorescent staining): can induce the GFAP expression of C6 glioma cancer cells
GFAP; RT-PCR
  GFAP mRNA expression: increased in a dose-dependent manner
Acetylated histone H4; 10 μg/mL NBM-HD-1 or 4 mM sodium butyrate, 2 hours
  accumulation of hyperacetylated histone H4: can increase the accumulation of hyperacetylated histone H4
Acetylated histone H4; 10 μg/mL, 2 hours treatment
  time of highest histone acetylation after removal of the compound: 6 h
Acetylated histone H4; after 2 hours treatment and removal from the culture medium, up to 6 hours
  amount of acetylated histone H4 after removal of the compound: increased over time
HDAC
  HDAC activity: significantly inhibits HDAC activity
